Assay results as given in US20100212031A1, “Method for improving efficiencies in livestock production” (priority 2002, published 2010).
Several values for one entry are separate records, joined by “and”; a condition that tells them apart may be missing. Equal entries are not always repeated. Marks after values point to notes of the source that are not given here.

Legend:
[1] = Test 4 / Group 3 feedlot study: body weight growth of steers by leptin (ob) genotype and drug status; type: in vivo, cattle (steers of mixed breed); details: Drug group; for BW, lbs d 1: 1st measure; for BW, lbs d 1 / BW, lbs d 2 / BW, lbs d 3: before drug; for BW, lbs d 2: 2nd measure; for BW, lbs d 3: 3rd measure; for BW, lbs d 4: 4th measure, after drug
Description: (§1) In test 4, 4172 hd of animals randomized to treatment and pen were housed in 48 pens, such that a study was conducted to assess the effect of ob genotype on fat growth, body weight growth, and carcass parameters; as well as any potential interaction with the beta andrenergic agonist Zilpaterol. […] 7.89 mm in the CT animals, and 7.63 mm in CC animals; with an overall statistical genotype effect of P=0.01. […] 494.6 lbs for CT animals, and 479.5 lbs for the CC animals; with an overall statistical genotype effect of P<0.01. Also importantly, the rate of fat change over time depended on ob genotype (Table 2).
(§2) Three groups of cattle were used to evaluate the effect of leptin genotype on back fat measurements in beef cattle. Originally two groups of cattle were fed and managed with the objective of evaluating the effect of a nutritional treatment on backfat measures and were randomly assigned to dietary treatment. The third experiment was fed and managed with the objective to evaluate 1) the effect the ob gene genotype on carcass parameters, 2) the effect of ob genotype on fat growth in the live animal, and 3) any potential interaction between the beta andrenergic agonist Zilpaterol Hydrochloride and ob genotype. The original experimental design for group 1 & 2 was a randomized complete block design (RCBD) with steers being randomly assigned to block, or experimental pen, dietary treatment was included in the final statistical model detailed below. […] Group 1 was composed of 319 steers and was of mixed breed, and of either European or British descent without any representation of Bos indicus bloodlines. The breeds represented in Group 1 were Hereford, Angus, Charolais, Simmental, and Limousin. The second group included 157 Charolais cross steers. All the cattle entered the finishing period when body weight was approximately 385 kg. Group 3 was composed of 4172 steers of mixed breed, and all cattle within a block were slaughtered on a single day.
Backfat was analyzed with repeated measurements at 1, 55 and 139 days on feed for Group 1, 69, 111, and 120 days on feed for Group 2, and 1, 60, 104, and 129 days on feed for Group 3 using the MIXED procedure of SAS (Wang and Goodewardene, 2004). The following model was used: […]=μ+ρi+αj+λκ+βl+(αβ)jl+(λβ)kl+eijkl. Where Yijkl is the observation for the jth treatment ration or drug status within the ith block at the kth measurement, μ is the overall mean, ρi is the fixed effect of the ith block, aj is the fixed effect of the jth treatment ration, λk is the fixed effect of the kth measurement, βl is the fixed effect for leptin genotype (GENO) and eijkl, is the normally identical and independently distributed error term. The interaction between leptin genotype and diet, (αβ)jl, and time of measurement (λβ)kl, was also tested. A heterogeneous autoregressive-one covariance structure was utilized in analysis of backfat. Least square means and standard errors for body weight and back fat were determined using the ESTIMATE statement in PROC MIXED. The SLICE option was used to estimate least square means of GENO on days of measurements with the DIFF option being used to detect differences. Significance for the main effect of GENO and pairwise comparisons was declared at P<0.05 and trends are noted P<0.10. […] Within each group of cattle retrospective exponential models were fitted to the longitudinal measurements of back fat as described by Brethour (2000). The NLIN procedure of SAS was used to fit the nonlinear exponential function Y=Ae^(kt), where Y=projected backfat, A=the initial backfat, k=rate of increase, and t=time in days.
In test 4, 4172 hd of animals randomized to treatment and pen were housed in 48 pens, such that a study was conducted to assess the effect of ob genotype on fat growth, body weight growth, and carcass parameters; as well as any potential interaction with the beta andrenergic agonist Zilpaterol. […]

[2] = Test 4 / Group 3 feedlot study: backfat by serial ultrasound, steers by leptin (ob) genotype and drug status; type: in vivo, cattle (steers of mixed breed); details: Drug group; for Backfat, mm d 1: 1st measure (1 days on feed); for Backfat, mm d 1 / Backfat, mm d 2 / Backfat, mm d 3: before drug; for Backfat, mm d 2: 2nd measure (60 days on feed); for Backfat, mm d 3: 3rd measure (104 days on feed); for Backfat, mm d 4: 4th measure (129 days on feed), after drug; for d to 10 mm (days needed to reach target backfat) / d to 12 mm (days needed to reach target backfat) / d to 14 mm (days needed to reach target backfat): from fitted model; for Rate (k, rate of backfat; fitted nonlinear parameter): model Y = 3.88e^kt, animal as experimental unit
Description: as §1, §2
Backfat was measured after 1, 55 and 139 days on feed for Group 1, 69, 111, and 120 days on feed for Group 2, and 1, 60, 104, and 129 days on feed for Group 3 using an Aloka 500V diagnostic ultrasound unit equipped with a 17.2 cm, 3.5 MHz linear array transducer (Overseas Monitor Corporation, Ltd., Richmond, B.C.) following the procedure described by Perkins et al., (1992). Internal calipers of the ultrasounds unit were used to measure back fat. Ultrasound images were recorded on a VHS tale (Panasonic AG-5200; Matsushita Electric of Canada, Mississauga, ON).
Backfat was analyzed with repeated measurements at 1, 55 and 139 days on feed for Group 1, 69, 111, and 120 days on feed for Group 2, and 1, 60, 104, and 129 days on feed for Group 3 using the MIXED procedure of SAS (Wang and Goodewardene, 2004). The following model was used: […]=μ+ρi+αj+λκ+βl+(αβ)jl+(λβ)kl+eijkl. Where Yijkl is the observation for the jth treatment ration or drug status within the ith block at the kth measurement, μ is the overall mean, ρi is the fixed effect of the ith block, aj is the fixed effect of the jth treatment ration, λk is the fixed effect of the kth measurement, βl is the fixed effect for leptin genotype (GENO) and eijkl, is the normally identical and independently distributed error term. The interaction between leptin genotype and diet, (αβ)jl, and time of measurement (λβ)kl, was also tested. A heterogeneous autoregressive-one covariance structure was utilized in analysis of backfat. Least square means and standard errors for body weight and back fat were determined using the ESTIMATE statement in PROC MIXED. The SLICE option was used to estimate least square means of GENO on days of measurements with the DIFF option being used to detect differences. Significance for the main effect of GENO and pairwise comparisons was declared at P<0.05 and trends are noted P<0.10. […]

[3] = administration of exogenous leptin; mice, chickens, pigs and sheep; cited from earlier work

CC(C)N[C@@H]1CCn2c(=O)[nH]c3cccc(c32)[C@H]1O.Cl (racemic) [Drug, Zilpaterol Hydrochloride]
ADG, lbs/d (Average daily live bodyweight gain in pounds) ([1]; CC Genotype): 3.51 lbs/d | BWCH, lbs: Body weight change before and after drug, difference between 3rd and 4th measure ([1]; CC Genotype): 72.1 lbs | BWCH, lbs: Body weight change, difference between 1st and 4th measure ([1]; CC Genotype): 500.5 lbs | BW, lbs d 1 ([1]; CC Genotype): 893.4 lbs | BW, lbs d 2 ([1]; CC Genotype): 1181.1 lbs | BW, lbs d 3 ([1]; CC Genotype): 1325.0 lbs | BW, lbs d 4 ([1]; CC Genotype): 1394.8 lbs | ADG, lbs/d (Average daily live bodyweight gain in pounds) ([1]; CT Genotype): 3.64 lbs/d | BWCH, lbs: Body weight change before and after drug, difference between 3rd and 4th measure ([1]; CT Genotype): 93.8 lbs | BWCH, lbs: Body weight change, difference between 1st and 4th measure ([1]; CT Genotype): 518.9 lbs | BW, lbs d 1 ([1]; CT Genotype): 890.3 lbs | BW, lbs d 2 ([1]; CT Genotype): 1197.3 lbs | BW, lbs d 3 ([1]; CT Genotype): 1317.1 lbs | BW, lbs d 4 ([1]; CT Genotype): 1407.6 lbs | ADG, lbs/d (Average daily live bodyweight gain in pounds) ([1]; TT Genotype): 3.60 lbs/d | BWCH, lbs: Body weight change before and after drug, difference between 3rd and 4th measure ([1]; TT Genotype): 75.8 lbs | BWCH, lbs: Body weight change, difference between 1st and 4th measure ([1]; TT Genotype): 512.4 lbs | BW, lbs d 1 ([1]; TT Genotype): 890.6 lbs | BW, lbs d 2 ([1]; TT Genotype): 1191.9 lbs | BW, lbs d 3 ([1]; TT Genotype): 1330.0 lbs | BW, lbs d 4 ([1]; TT Genotype): 1399.0 lbs | AFG, mm/d (Average Daily fat gain in millimeters) ([2]; CC Genotype): 0.051 mm/d | Fat CH, mm: Backfat change before and after drug, difference between 3rd and 4th measure ([2]; CC Genotype): 1.24 mm | Fat CH, mm: Backfat change, difference between 1st and 4th measure ([2]; CC Genotype): 7.30 mm | Rate, 10-12 ([2]; CC Genotype): 0.0071 | Backfat, mm d 1 ([2]; CC Genotype): 3.46 mm | Backfat, mm d 2 ([2]; CC Genotype): 7.44 mm | Backfat, mm d 3 ([2]; CC Genotype): 9.60 mm | Backfat, mm d 4 ([2]; CC Genotype): 10.7 mm | d to 10 mm (days needed to reach target backfat) ([2]; CC Genotype): 144 days | d to 12 mm (days needed to reach target backfat) ([2]; CC Genotype): 170 days | d to 14 mm (days needed to reach target backfat) ([2]; CC Genotype): 192 days | Rate (k, rate of backfat; fitted nonlinear parameter) ([2]; CC Genotype): 0.0069^a | AFG, mm/d (Average Daily fat gain in millimeters) ([2]; CT Genotype): 0.053 mm/d | Fat CH, mm: Backfat change before and after drug, difference between 3rd and 4th measure ([2]; CT Genotype): 1.35 mm | Fat CH, mm: Backfat change, difference between 1st and 4th measure ([2]; CT Genotype): 7.56 mm | Rate, 10-12 ([2]; CT Genotype): 0.0072 | Backfat, mm d 1 ([2]; CT Genotype): 3.50 mm | Backfat, mm d 2 ([2]; CT Genotype): 7.74 mm | Backfat, mm d 3 ([2]; CT Genotype): 9.77 mm | Backfat, mm d 4 ([2]; CT Genotype): 11.0 mm | d to 10 mm (days needed to reach target backfat) ([2]; CT Genotype): 135 days | d to 12 mm (days needed to reach target backfat) ([2]; CT Genotype): 160 days | d to 14 mm (days needed to reach target backfat) ([2]; CT Genotype): 182 days | Rate (k, rate of backfat; fitted nonlinear parameter) ([2]; CT Genotype, Hydrochloride): 0.0077^1 and 0.0071^1 | AFG, mm/d (Average Daily fat gain in millimeters) ([2]; TT Genotype): 0.054 mm/d | Fat CH, mm: Backfat change before and after drug, difference between 3rd and 4th measure ([2]; TT Genotype): 1.17 mm | Fat CH, mm: Backfat change, difference between 1st and 4th measure ([2]; TT Genotype): 7.71 mm | Rate, 10-12 ([2]; TT Genotype): 0.0073 | Backfat, mm d 1 ([2]; TT Genotype): 3.62 mm | Backfat, mm d 2 ([2]; TT Genotype): 7.98 mm | Backfat, mm d 3 ([2]; TT Genotype): 10.26 mm | Backfat, mm d 4 ([2]; TT Genotype): 11.3 mm | d to 10 mm (days needed to reach target backfat) ([2]; TT Genotype): 126 days | d to 12 mm (days needed to reach target backfat) ([2]; TT Genotype): 151 days | d to 14 mm (days needed to reach target backfat) ([2]; TT Genotype): 173 days | Rate (k, rate of backfat; fitted nonlinear parameter) ([2]; TT Genotype): 0.0075^bc

leptin: 16-kDa adipocyte-specific polypeptide encoded by the ob (obese) gene
body mass [3]: dramatically reduces | feed intake [3]: dramatically reduces
